Tested on: hESC-derived retinal progenitor cells
Experiment: Differentiation of hESC-derived retinal progenitor cells into photoreceptor cells with substitutes for Wnt3a or Shh; positive rates of retinal cell markers by immunochemical staining
Assay type: cell-based, human
Conditions: Mean ± S.E.M., sample size 3
Description: The eye field precursors (floating aggregates) were cultured in 8-well poly-D-lysine/laminin-coated slides (BD Biosciences, Bedford, Mass.) under the same conditions that were used for differentiation into the retinal progenitor cells, the neural retinal progenitor cells, the photoreceptor cell precursors and the photoreceptor cells.
After being blocked for 90 min, the slides in each differentiation step were incubated overnight at 4° C. with the following antibodies specific for cells of each differentiation step: rabbit-Blue-opsin (1:500, Chemicon), sheep-Chx10 (1:100, Chemicon), rabbit-Crx (1:200, Santa Cruz Biotechnology, Santa Cruz, Calif., USA), rabbit-GFAP (1:200, Invitrogen), mouse-human specific mitochondria (1:50, Chemicon), rabbit-human specific mitochondria (1:200, Chemicon), mouse-Islet1 (1:10, Developmental Studies Hydroma Bank, DSHB; Iowa City, Iowa, USA), mouse-Ki67 (1:100, Vector Laboratories, Peterborough, England), mouse-Mitf (1:1,000, abcam, Cambridge, Mass., USA), mouse-nestin (1:250, BD Sciences), rabbit-neurofilament-200 (1:1,000, Sigma-Aldrich), rabbit-Otx2 (1:100, abcam), rabbit-Pax2 (1:250, abcam), mouse-Pax6 (1:2, DSHB), mouse-peripherin2 (1:500, GenScript, Piscataway, N.J., USA), rabbit-Rax (1:250, abcam), rabbit-recoverin (1:1,000, Chemicon), retinal pigment epithelium 65 (RPE65, 1:100, Chemicon), rabbit-rhodopsin (1:500, Sigma-Aldrich), mouse-rhodopsin (1:500, Ret-P1, Lab Vision, Fremont, Calif., USA), mouse-rhodopsin (1:2,000, Ret-P1, Sigma-Aldrich), mouse-rom1 (1:50, ABR-Affinity Bioreagents, Golden, Colo., USA), rabbit-PDE6 beta (1:100, abcam), rabbit-phosducin (1:500, Santa Cruz Biotechnology), mouse-PKC-alpha (1:500, Sigma-Aldrich), mouse-Prox1 (1:2,000, Chemicon), mouse-Sox2 (1:250, R&D Systems), rabbit-synaptophysin (1:2,000, Santa Cruz Biotechnology), and rabbit-ZO-1 (1:100, Zymed-Invitrogen).
The cells cultured on the slides in each step were washed three times for 5 min with PBS and incubated at room temperature for 2 hrs with species-specific secondary antibody conjugated with Cy3 (1:800, Jackson Immunoresearch Laboratory) or Alexa488 (1:500, Invitrogen). A standard material suitable for the primary and the secondary antibody was used to examine non-specific staining or interaction between the antibodies. Afterwards, the cells were washed three times for 5 min with PBS, counterstained with DAPI (4,6-diamidino-2 phenylindole) and mounted in Vectashield (Vector Laboratories), followed by visualization under an epifluorescence microscope (Nikon Eclipse, E800, Tokyo, Japan) and a confocal microscope (Leica, Leica Microsystems Inc, Bannockburn, Ill., USA or Zeiss LSM510, Carl Zeiss, Inc, Thornwood, N.Y., USA).
500 cells were counted from 20 microscopic fields randomly selected at 200 magnification and evaluated for positive responses to each antibody. Positive responses to antibodies were determined after at least three evaluations. […] All data were represented as mean±standard error of the mean (S.E.M) with a statistical significance of p<0.05.

O=C1Nc2cc(Br)ccc2/C1=C1/Nc2ccccc2/C1=N\O [BIO, 6-bromoindirubin-3′-oxime, reference compound]
Positive rate of Crx (2 uM instead of Wnt3a): 65.8(±1.0) % | Positive rate of Ki67 (2 uM instead of Wnt3a): 17.2(±0.6) % | Positive rate of Pax6 (2 uM instead of Wnt3a): 92.8(±1.0) % | Positive rate of Rom (2 uM instead of Wnt3a): 60.3(±0.9) % | Positive rate of b-opsin (2 uM instead of Wnt3a): 77.5(±1.8) % | Positive rate of peripherin2 (2 uM instead of Wnt3a): 33.9(±0.1) % | Positive rate of recoverin (2 uM instead of Wnt3a): 77.1(±0.8) % | Positive rate of rhodopsin (2 uM instead of Wnt3a): 71.5(±1.2) %

[Cl-].[Li+] [LiCl, reference compound]
Positive rate of recoverin (2.5 mM instead of Wnt3a): 64.1(±2.9) % | Positive rate of rhodopsin (2.5 mM instead of Wnt3a): 56.2(±1.7) % | Positive rate of Crx (5 mM instead of Wnt3a): 5.0(±1.7) % | Positive rate of Ki67 (5 mM instead of Wnt3a): 33.3(±2.2) % | Positive rate of peripherin2 (5 mM instead of Wnt3a): 1.5(±0.9) % | Positive rate of recoverin (5 mM instead of Wnt3a): 78.9(±4.4) % | Positive rate of rhodopsin (5 mM instead of Wnt3a): 68.5(±2.2) %

O=C1NC(=O)C(c2ccccc2[N+](=O)[O-])=C1Nc1ccc(O)c(Cl)c1 [SB415286, reference compound]
Positive rate of Crx (30 uM instead of Wnt3a): 53.7(±2.7) % | Positive rate of Ki67 (30 uM instead of Wnt3a): 13.3(±1.2) % | Positive rate of Pax6 (30 uM instead of Wnt3a): 89.1(±0.6) % | Positive rate of Rom (30 uM instead of Wnt3a): 59.5(±0.7) % | Positive rate of b-opsin (30 uM instead of Wnt3a): 53.7(±2.7) % | Positive rate of peripherin2 (30 uM instead of Wnt3a): 9.1(±0.6) % | Positive rate of recoverin (30 uM instead of Wnt3a): 70.0(±0.6) % | Positive rate of rhodopsin (30 uM instead of Wnt3a): 69.3(±0.5) %

c1ccc2c(Oc3nc(Nc4ccc(N5CCOCC5)cc4)c4ncn(C5CCCCC5)c4n3)cccc2c1 [purmorphamine, reference compound]
Positive rate of Crx (1 uM instead of Shh): 71.6(±0.8) % | Positive rate of Ki67 (1 uM instead of Shh): 24.3(±0.5) % | Positive rate of peripherin2 (1 uM instead of Shh): 41.5(±1.2) % | Positive rate of recoverin (1 uM instead of Shh): 76.5(±0.9) % | Positive rate of rhodopsin (1 uM instead of Shh): 73.5(±1.2) %

Norrin: recombinant Norrin (R&D Systems), activator of the Wnt pathway, binds to Frizzled4 receptor
Positive rate of Crx (50 ng/ml instead of Wnt3a): 39.3(±0.8) % | Positive rate of Ki67 (50 ng/ml instead of Wnt3a): 42.2(±6.8) % | Positive rate of Rom (50 ng/ml instead of Wnt3a): 69.5(±2.7) % | Positive rate of b-opsin (50 ng/ml instead of Wnt3a): 71.1(±0.6) % | Positive rate of peripherin2 (50 ng/ml instead of Wnt3a): 24.9(±4.5) % | Positive rate of recoverin (50 ng/ml instead of Wnt3a): 85.0(±7.2) % | Positive rate of rhodopsin (50 ng/ml instead of Wnt3a): 82.9(±7.1) %

B1: Wnt5A: recombinant Wnt5A (R&D Systems), Wnt signaling pathway activator used instead of Wnt3a (protein, UniProt P41221 62-380, looked up)
Protein Wnt-5a: IIGAQPLCSQLAGLSQGQKKLCHLYQDHMQYIGEGAKTGIKECQYQFRHRRWNCSTVDNTSVFGRVMQIGSRETAFTYAVSAAGVVNAMSRACREGELSTCGCSRAARPKDLPRDWLWGGCGDNIDYGYRFAKEFVDARERERIHAKGSYESARILMNLHNNEAGRRTVYNLADVACKCHGVSGSCSLKTCWLQLADFRKVGDALKEKYDSAAAMRLNSRGKLVQVNSRFNSPTTQDLVYIDPSPDYCVRNESTGSLGTQGRLCNKTSEGMDGCELMCCGRGYDQFKTVQTERCHCKFHWCCYVKCKKCTEIVDQFVCK
Positive rate of Crx (50 ng/ml instead of Wnt3a): 67.3(±1.9) % | Positive rate of Ki67 (50 ng/ml instead of Wnt3a): 41.3(±3.9) % | Positive rate of Rom (50 ng/ml instead of Wnt3a): 58.8(±2.7) % | Positive rate of b-opsin (50 ng/ml instead of Wnt3a): 55.0(±4.4) % | Positive rate of peripherin2 (50 ng/ml instead of Wnt3a): 20.7(±0.8) % | Positive rate of recoverin (50 ng/ml instead of Wnt3a): 61.0(±3.2) % | Positive rate of rhodopsin (50 ng/ml instead of Wnt3a): 59.5(±2.0) % | Positive rate of peripherin2 (100 ng/ml instead of Wnt3a): 14.2(±2.8) % | Positive rate of recoverin (100 ng/ml instead of Wnt3a): 61.6(±2.5) % | Positive rate of rhodopsin (100 ng/ml instead of Wnt3a): 56.1(±1.8) %

Reference: patent US9200252B2, “Compositions for inducing differentiation into retinal cells from retinal progenitor cells or inducing proliferation of retinal cells comprising Wnt signaling pathway activators” (SNU R&DB Foundation, priority 2009, dated 2015)
